For assay [1], the system named is human B cell lymphoma cell line (Toledo). The assay can be described thus: Macrophage phagocytosis assay with VPD450-labeled Toledo cells (flow cytometry). Type of assay: cell-based. The settings on record: two hours co-culture, FIG. 1. An excerpt:
Heparinized whole blood was obtained from normal healthy human donors (Biological Specialty Corporation) and informed consent was obtained from all donors. Peripheral blood mononuclear cells (PBMCs) were isolated over Ficoll-Paque Plus density gradient (GE Healthcare) and CD14+ monocytes were isolated from PBMCs by positive selection using CD14 antibody-coated MicroBead separation (Miltenyi Biotec). Monocytes were differentiated into macrophages by culturing for seven days in X-Vivo-15 media (Lonza) supplemented with M-CSF (PeproTech), at which point paclitaxel was added to the macrophage culture for an additional six days. On the day of the phagocytosis assay, macrophages were co-cultured with violet proliferation dye 450 (VPD450)-labeled human B cell lymphoma cell line (Toledo) in the presence of 1 μM human SIRPαFc (IgV domain of human SIRPα variant 2 fused with IgG1 Fc), 1 μM control Fc [human IgG1 Fc region (hinge-CH2-CH3)] or nothing (no treatment, NT) for two hours. Phagocytosis was assessed as % VPD450+ cells of live, single CD14+CD11b+ macrophages by flow cytometry. Results are shown in FIG. 1 and are duplicates from a single experiment.
For orientation: In flow cytometry, cells or beads pass a laser one at a time.

In the next assay the target is human CD47 (human) (UniProt Q08722). The assay can be described thus: cell-based or functional assay.
Sequence of UniProt Q08722 (Q08722 19-323): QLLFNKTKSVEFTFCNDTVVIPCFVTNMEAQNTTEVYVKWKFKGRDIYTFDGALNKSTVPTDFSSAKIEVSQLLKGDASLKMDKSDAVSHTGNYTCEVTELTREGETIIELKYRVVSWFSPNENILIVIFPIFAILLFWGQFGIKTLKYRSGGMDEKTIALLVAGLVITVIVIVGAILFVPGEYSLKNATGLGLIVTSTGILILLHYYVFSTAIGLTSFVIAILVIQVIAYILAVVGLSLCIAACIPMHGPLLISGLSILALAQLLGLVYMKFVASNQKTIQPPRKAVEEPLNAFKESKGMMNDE

With “SIRPαFc: IgV domain of human SIRPα variant 2 fused with IgG1 Fc”, in assay [1] (1 μM SIRPαFc, "no treatment" macrophages (not cultured in paclitaxel)), the “% phagocytosis (% VPD450+ cells of live, single CD14+CD11b+ macrophages)” value is “around 9%”. In addition, the “phagocytosis of the VPD450-labeled B cell lymphoma cells (in words)” value in assay [1] (1 μM protein) was “substantial phagocytosis”.

With “human SIRPαFc (IgV domain of human SIRPα variant 2 fused with IgG1 Fc) (Fc fusion)”, in the assay with human CD47 (human), the % phagocytosis (% VPD450+ cells of live, single CD14+CD11b+ macrophages) of Toledo cells, 1 µM SIRPαFc, macrophages cultured in paclitaxel is 15% and the % phagocytosis (% VPD450+ cells of live, single CD14+CD11b+ macrophages) of Toledo cells, 1 µM SIRPαFc, macrophages not cultured in paclitaxel came out at 9%.

These data come from US20250235504A1, “ENHANCEMENT OF CD47 BLOCKADE WITH TAXANES FOR CD47+ CANCER THERAPY” (Pfizer Inc., priority 2021, published 2025).
